Measured values as given in patent US12338243B2, “P2X7 modulators” (JANSSEN PHARMACEUTICA NV, priority 2014, dated 2025).

Legend:
rat P2X7 = molecular target: T1, rat P2X7 (Rattus norvegicus, UniProt Q64663); experiment: Ca2+ flux (FLIPR) in 1321N1 cells expressing recombinant rat P2X7 channel; conditions: FLIPR (rat) IC50 (μM), 250 μM BzATP
T1 sequence (Q64663 1-595): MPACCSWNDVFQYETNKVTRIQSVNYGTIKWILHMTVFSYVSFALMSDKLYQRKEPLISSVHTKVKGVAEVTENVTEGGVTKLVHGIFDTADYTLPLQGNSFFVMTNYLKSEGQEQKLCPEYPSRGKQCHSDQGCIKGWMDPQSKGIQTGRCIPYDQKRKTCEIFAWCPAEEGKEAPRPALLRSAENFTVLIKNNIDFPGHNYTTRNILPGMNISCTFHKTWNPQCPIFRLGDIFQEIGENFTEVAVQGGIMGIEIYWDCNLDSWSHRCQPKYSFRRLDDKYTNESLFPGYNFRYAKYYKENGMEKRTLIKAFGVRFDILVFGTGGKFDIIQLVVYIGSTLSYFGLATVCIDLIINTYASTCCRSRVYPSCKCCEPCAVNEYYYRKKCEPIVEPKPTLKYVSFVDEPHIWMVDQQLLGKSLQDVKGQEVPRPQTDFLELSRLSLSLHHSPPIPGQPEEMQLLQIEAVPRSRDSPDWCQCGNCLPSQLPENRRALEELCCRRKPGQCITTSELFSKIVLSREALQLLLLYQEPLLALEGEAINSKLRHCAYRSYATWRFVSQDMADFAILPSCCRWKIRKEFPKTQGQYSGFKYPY

P2X7 [1] = molecular target: T2, P2X7 (Homo sapiens, UniProt Q99572); experiment: Ca2+ flux (FLIPR) in 1321N1 cells expressing recombinant human P2X7 channel; assay type: cell-based; set-up: expressed in transfected cells; host or cells: 1321N1 cells; conditions: 250 μM BzATP
T2 sequence (Q99572 1-595): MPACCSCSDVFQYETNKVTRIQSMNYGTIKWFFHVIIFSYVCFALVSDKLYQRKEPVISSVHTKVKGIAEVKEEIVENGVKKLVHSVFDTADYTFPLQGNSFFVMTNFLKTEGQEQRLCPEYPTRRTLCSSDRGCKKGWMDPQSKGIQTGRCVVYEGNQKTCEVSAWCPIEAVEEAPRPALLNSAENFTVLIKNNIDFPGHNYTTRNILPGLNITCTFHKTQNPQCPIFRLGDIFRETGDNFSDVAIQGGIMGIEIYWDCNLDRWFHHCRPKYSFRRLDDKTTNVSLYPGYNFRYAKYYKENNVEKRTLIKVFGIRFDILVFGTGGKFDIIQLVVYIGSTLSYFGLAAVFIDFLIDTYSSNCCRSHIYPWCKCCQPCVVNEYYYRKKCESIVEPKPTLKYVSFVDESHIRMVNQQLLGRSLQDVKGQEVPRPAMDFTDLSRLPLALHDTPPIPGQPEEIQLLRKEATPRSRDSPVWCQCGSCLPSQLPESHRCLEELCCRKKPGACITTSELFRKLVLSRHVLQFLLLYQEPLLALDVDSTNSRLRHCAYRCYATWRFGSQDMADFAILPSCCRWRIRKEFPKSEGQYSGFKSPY
Protocol: P2X7 Antagonism in Recombinant Human P2X7 Cells or Recombinant Rat P2X7 Cells: (a) Ca^2+ Flux and (b) Radioligand Binding
(a) Ca^2+ flux: 1321N1 cells expressing the recombinant human or rat P2X7 channel was cultured in HyQ DME/(HyClone/Dulbecco's Modified Eagle Medium) high glucose supplemented with 10% Fetal Bovine Serum (FBS) and appropriate selection marker. Cells were seeded at a density of 25000 cells/well (96-well clear bottom black walled plates) in 100 μl volume/well. On the day of the experiment, cell plates were washed with assay buffer, containing (in mM): 130 NaCl, 2 KCl, 1 CaCl2), 1 MgCl2, 10 HEPES, 5 glucose; pH 7.40 and 300 mOs. After the wash, cells were loaded with the Calcium-4 dye (Molecular Device) and incubated in the dark for 60 minutes. Test compounds were prepared at 250× the test concentration in neat DMSO. Intermediate 96-well compound plates were prepared by transferring 1.2 μL of the compound into 300 μL of assay buffer. A further 3× dilution occurred when transferring 50 μL/well of the compound plate to 100 μL/well in the cell plate. Cells were incubated with test compounds and dye for 30 minutes. […] The fluorescence change was measured 180 seconds after adding the agonist.

P2X7 [2] = molecular target: T2, P2X7; experiment: Radioligand binding, human P2X7-1321N1 cell membranes, tritiated A-804598

| Compound | IC50 (rat P2X7) | IC50 (P2X7 [1]) | Ki (P2X7 [2]) |
| --- | --- | --- | --- |
| O=C(c1cccc(C(F)(F)F)c1Cl)N1CCn2c(-c3ccco3)nnc2C1c1ccccc1 (racemic) [Example 79, (±)-(2-chloro-3-(trifluoromethyl)phenyl)(3-(furan-2-yl)-8-phenyl-5,6-dihydro-[1,2,4]triazolo[4,3-a]pyrazin-7(8H)-yl)methanone] | 0.0071 µM | 0.0151 µM | 0.1 µM |
| CC(O)c1nnc2n1CCN(C(=O)c1cccc(C(F)(F)F)c1Cl)C2c1ccccc1 (racemic) [Example 80, (±)-(2-chloro-3-(trifluoromethyl)phenyl)(3-(1-hydroxyethyl)-8-phenyl-5,6-dihydro-[1,2,4]triazolo[4,3-a]pyrazin-7(8H)-yl)methanone] | 0.395 µM | 0.0563 µM | 0.02 µM |
| COc1ccc(-c2nnc3n2C[C@H](C)N(C(=O)c2cccc(C(F)(F)F)c2Cl)C3)nc1 [Example 71] | > 10 µM | 1.22 µM |  |
| O=C(c1cccc(C(F)(F)F)c1Cl)N1CCn2c(C3CC3)nnc2[C@H]1c1ccccc1 [Example 77, (R)-(2-chloro-3-(trifluoromethyl)phenyl)(3-cyclopropyl-8-phenyl-5,6-dihydro-[1,2,4]triazolo[4,3-a]pyrazin-7(8H)-yl)methanone] | 1.11 µM | 0.589 µM |  |
| COc1cnc(-c2nnc3n2C[C@H](C)N(C(=O)c2cccc(C(F)(F)F)c2Cl)C3)nc1 [Example 78, (S)-(2-chloro-3-(trifluoromethyl)phenyl)(3-(5-methoxypyrimidin-2-yl)-6-methyl-5,6-dihydro-[1,2,4]triazolo[4,3-a]pyrazin-7(8H)-yl)methanone] | 6.61 µM | 0.0143 µM |  |
| CC(C)(C)c1nnc2n1CCN(C(=O)c1cccc(C(F)(F)F)c1Cl)[C@H]2c1ccccc1 [Example 82, (S)-(3-(tert-butyl)-8-phenyl-5,6-dihydro-[1,2,4]triazolo[4,3-a]pyrazin-7(8H)-yl)(2-chloro-3-(trifluoromethyl)phenyl)methanone] | 1.85 µM | 0.959 µM |  |
| O=C(c1cccc(C(F)(F)F)c1Cl)N1CCn2c(-c3ccco3)nnc2[C@H]1c1ccccc1 [Example 83, (R)-(2-chloro-3-(trifluoromethyl)phenyl)(3-(furan-2-yl)-8-phenyl-5,6-dihydro-[1,2,4]triazolo[4,3-a]pyrazin-7(8H)-yl)methanone] | 0.998 µM | 1.79 µM |  |
| CCc1nnc2n1CCN(C(=O)c1cccc(C(F)(F)F)c1Cl)[C@H]2c1ccccc1 [Example 87, (S)-(2-chloro-3-(trifluoromethyl)phenyl)(3-ethyl-8-phenyl-5,6-dihydro-[1,2,4]triazolo[4,3-a]pyrazin-7(8H)-yl)methanone] | 9.93 µM | 3.81 µM |  |
| CC(C)c1nnc2n1CCN(C(=O)c1cccc(C(F)(F)F)c1Cl)[C@H]2c1ccccc1 [Example 89, (S)-(2-chloro-3-(trifluoromethyl)phenyl)(3-isopropyl-8-phenyl-5,6-dihydro-[1,2,4]triazolo[4,3-a]pyrazin-7(8H)-yl)methanone] | > 10 µM | 0.98 µM |  |
| Cc1nnc2n1CCN(C(=O)c1cccc(C(F)(F)F)c1Cl)[C@H]2c1ccccn1 [Example 92, (S)-(2-chloro-3-(trifluoromethyl)phenyl)(3-methyl-8-(pyridin-2-yl)-5,6-dihydro-[1,2,4]triazolo[4,3-a]pyrazin-7(8H)-yl)methanone] | 17.7 µM | 0.755 µM |  |
| O=C(c1cccc(C(F)(F)F)c1Cl)N1CCn2c(C3CCC3)nnc2[C@@H]1c1ccccc1 [Example 94, (S)-(2-chloro-3-(trifluoromethyl)phenyl)(3-cyclobutyl-8-phenyl-5,6-dihydro-[1,2,4]triazolo[4,3-a]pyrazin-7(8H)-yl)methanone] | 2.16 µM | 0.433 µM |  |
| O=C(c1cccc(C(F)(F)F)c1Cl)N1CCn2c(nnc2C(F)(F)F)[C@@H]1c1ccccc1 [Example 98, (S)-(2-chloro-3-(trifluoromethyl)phenyl)(8-phenyl-3-(trifluoromethyl)-5,6-dihydro-[1,2,4]triazolo[4,3-a]pyrazin-7(8H)-yl)methanone] | > 10 µM | 5.51 µM |  |
| O=C(c1cccc(Cl)c1Cl)N1CCn2c(nnc2C(F)(F)F)[C@@H]1c1ccccc1 [Example 103, (S)-(2,3-dichlorophenyl)(8-phenyl-3-(trifluoromethyl)-5,6-dihydro-[1,2,4]triazolo[4,3-a]pyrazin-7(8H)-yl)methanone] | > 10 µM | 1.4 µM |  |
| Cc1nnc2n1CCN(C(=O)c1cccc(Cl)c1Cl)[C@@H]2c1ccc(F)cc1 [Example 104, (R)-(2,3-dichlorophenyl)(8-(4-fluorophenyl)-3-methyl-5,6-dihydro-[1,2,4]triazolo[4,3-a]pyrazin-7(8H)-yl)methanone] | > 10 µM | 4.48 µM |  |
| O=C(c1cccc(C(F)(F)F)c1Cl)N1CCn2c(C3CC3)nnc2[C@H]1c1ccc(F)cc1 [Example 106, (R)-(2-chloro-3-(trifluoromethyl)phenyl)(3-cyclopropyl-8-(4-fluorophenyl)-5,6-dihydro-[1,2,4]triazolo[4,3-a]pyrazin-7(8H)-yl)methanone] | > 10 µM | > 10 µM |  |
| O=C(c1cccc(C(F)(F)F)c1Cl)N1CCn2c(C(F)F)nnc2[C@@H]1c1ccccc1 [Example 109, (S)-(2-chloro-3-(trifluoromethyl)phenyl)(3-(difluoromethyl)-8-phenyl-5,6-dihydro-[1,2,4]triazolo[4,3-a]pyrazin-7(8H)-yl)methanone] | > 10 µM | > 10 µM |  |
| O=C(c1cccc(Cl)c1Cl)N1CCn2c(C(F)F)nnc2[C@@H]1c1ccccc1 [Example 111, (S)-(2,3-dichlorophenyl)(3-(difluoromethyl)-8-phenyl-5,6-dihydro-[1,2,4]triazolo[4,3-a]pyrazin-7(8H)-yl)methanone] | > 10 µM | > 10 µM |  |
| Cc1nnc2n1CCN(C(=O)c1cccc(Cl)c1Cl)[C@H]2c1ccccn1 [Example 113, (S)-(2,3-dichlorophenyl)(3-methyl-8-(pyridin-2-yl)-5,6-dihydro-[1,2,4]triazolo[4,3-a]pyrazin-7(8H)-yl)methanone] | > 10 µM | 3.81 µM |  |
| Cc1nnc2n1CCN(C(=O)c1cccc(C(F)(F)F)c1Cl)[C@@H]2c1ccc(F)cc1 [Example 114, (R)-(2-chloro-3-(trifluoromethyl)phenyl)(8-(4-fluorophenyl)-3-methyl-5,6-dihydro-[1,2,4]triazolo[4,3-a]pyrazin-7(8H)-yl)methanone] | > 10 µM | 4.08 µM |  |
| O=C(c1ccc(F)cc1Cl)N1CCn2c(nnc2C(F)(F)F)[C@H]1c1ccccc1 [Example 118, (R)-(2-chloro-4-fluorophenyl)(8-phenyl-3-(trifluoromethyl)-5,6-dihydro-[1,2,4]triazolo[4,3-a]pyrazin-7(8H)-yl)methanone] | 19.6 µM | 0.921 µM |  |
| O=C(c1ccc(F)c(Cl)c1Cl)N1CCn2c(nnc2C(F)(F)F)[C@@H]1c1ccccc1 [Example 125, (S)-(2,3-dichloro-4-fluorophenyl)(8-phenyl-3-(trifluoromethyl)-5,6-dihydro-[1,2,4]triazolo[4,3-a]pyrazin-7(8H)-yl)methanone] | > 10 µM | 11.7 µM |  |
